Values quoted from earlier work, collected in patent US12691080B2, “Fenretinide formulations, systems incorporating same, and methods for their use” (ARx, LLC, priority 2024, dated 2026).
In brackets after ≈: the same amount, converted by molar mass.

Tests used:
[1] = pH 6.5

solubility in water [1]: 0.013 µM (≈ 5.09 ng/mL)
Structure (SMILES): CC1=C(/C=C/C(C)=C/C=C/C(C)=C/C(=O)Nc2ccc(O)cc2)C(C)(C)CCC1 [fenretinide, N-(4-hydroxyphenyl)retinamide]
epithelial proliferation (Ki-67 indices) (oral epithelium; epithelium with higher fenretinide levels (>5 μM)): significantly reduced
transglutaminase 1 levels (oral epithelium; fenretinide levels lower than 5 μM): increased levels
Phase II enzyme UGT1A1 (oral epithelium; lower fenretinide levels): increase
systemically detectable drug (oral epithelium; oral mucosal patch delivery): absence of any systemically detectable drug
